Test results from patent publication US7148227B2, “Fungicidal triazolopyrimidines, methods for producing the same, use thereof for combating harmful fungi and agents containing said substances” (BASF Aktiengesellschaft, priority 2002, dated 2006).

Row | melting point | Compound
1 | 207 °C | N#Cc1ccc(-c2c(Cl)nc3ncnn3c2NC2CCCC2)cc1 [I-3]
2 | 161 °C | CSc1cc(F)c(-c2c(Cl)nc3ncnn3c2NCC(F)(F)F)cc1F [I-8]
